{
  "source": "PubChem BioAssay AID2060620",
  "about": "(Molecular Pharmacology Branch, DTP, NCI, 2025)",
  "system": "328373-195-R-J1-PDC complex spheroids, viability % test/control",
  "experiment": "Anticancer human tumor 328373-195-R-J1-PDC patient-derived head and neck squamous carcinoma cell line growth inhibition [CLK]",
  "settings": "for IC50: curve of first compound; for viability, T/C: stronger effect = lower value",
  "outline": "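Patient-derived tumor cells grown as complex spheroids with HUVEC endothelial cells and mesenchymal stem cells, treated with drug combinations. Concentrations descend in half-log steps from near clinical Cmax, or from 10 microM if Cmax unknown.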",
  "key": {"[1]": {"settings": "second compound 0.0316 µM, first compound 0.0316 µM"}, "[2]": {"settings": "second compound 0.0316 µM, first compound 0.1 µM"}, "[3]": {"settings": "second compound 0.0316 µM, first compound 0.316 µM"}, "[4]": {"settings": "second compound 0.0316 µM, first compound 1 µM"}, "[5]": {"settings": "second compound 0.0316 µM, first compound 3.16 µM"}, "[6]": {"settings": "second compound 0.0316 µM, first compound 10 µM"}, "[7]": {"settings": "second compound 0.1 µM, first compound 0.0316 µM"}, "[8]": {"settings": "second compound 0.1 µM, first compound 0.1 µM"}, "[9]": {"settings": "second compound 0.1 µM, first compound 0.316 µM"}, "[10]": {"settings": "second compound 0.1 µM, first compound 1 µM"}, "[11]": {"settings": "second compound 0.1 µM, first compound 3.16 µM"}, "[12]": {"settings": "second compound 0.1 µM, first compound 10 µM"}, "[13]": {"settings": "second compound 0.316 µM, first compound 0.0316 µM"}, "[14]": {"settings": "second compound 0.316 µM, first compound 0.1 µM"}, "[15]": {"settings": "second compound 0.316 µM, first compound 0.316 µM"}, "[16]": {"settings": "second compound 0.316 µM, first compound 1 µM"}, "[17]": {"settings": "second compound 0.316 µM, first compound 3.16 µM"}, "[18]": {"settings": "second compound 0.316 µM, first compound 10 µM"}, "[19]": {"settings": "second compound 1 µM, first compound 0.0316 µM"}, "[20]": {"settings": "second compound 1 µM, first compound 0.1 µM"}, "[21]": {"settings": "second compound 1 µM, first compound 0.316 µM"}, "[22]": {"settings": "second compound 1 µM, first compound 1 µM"}, "[23]": {"settings": "second compound 1 µM, first compound 3.16 µM"}, "[24]": {"settings": "second compound 1 µM, first compound 10 µM"}, "[25]": {"settings": "second compound 3.16 µM, first compound 0.0316 µM"}, "[26]": {"settings": "second compound 3.16 µM, first compound 0.1 µM"}, "[27]": {"settings": "second compound 3.16 µM, first compound 0.316 µM"}, "[28]": {"settings": "second compound 3.16 µM, first compound 1 µM"}, "[29]": {"settings": "second compound 3.16 µM, first compound 3.16 µM"}, "[30]": {"settings": "second compound 3.16 µM, first compound 10 µM"}, "[31]": {"settings": "second compound 10 µM, first compound 0.0316 µM"}, "[32]": {"settings": "second compound 10 µM, first compound 0.1 µM"}, "[33]": {"settings": "second compound 10 µM, first compound 0.316 µM"}, "[34]": {"settings": "second compound 10 µM, first compound 1 µM"}, "[35]": {"settings": "second compound 10 µM, first compound 3.16 µM"}, "[36]": {"settings": "second compound 10 µM, first compound 10 µM"}},
  "data": [
    {"compound": "CC1(C)CCC(CN2CCN(c3ccc(C(=O)NS(=O)(=O)c4ccc(NCC5CCOCC5)c([N+](=O)[O-])c4)c(Oc4cnc5[nH]ccc5c4)c3)CC2)=C(c2ccc(Cl)cc2)C1", "note": "+ CNC(=O)c1ccc(Nc2nc(OC3CCCC3)c3c(-c4ccc5nc(C)oc5c4)c[nH]c3n2)c(OC)c1;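 further: spheroids exposed to the agents for 7 days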", "values": [
      {"measurement": "IC50", "setting": "second compound 0.0316 µM", "value": 1.39, "unit": "µM"},
      {"measurement": "IC50", "setting": "second compound 0.1 µM", "value": "< 0.0316", "unit": "µM"},
      {"measurement": "IC50", "setting": "second compound 0.316 µM", "value": "< 0.0316", "unit": "µM"},
      {"measurement": "IC50", "setting": "second compound 1 µM", "value": "< 0.0316", "unit": "µM"},
      {"measurement": "IC50", "setting": "second compound 3.16 µM", "value": "< 0.0316", "unit": "µM"},
      {"measurement": "IC50", "setting": "second compound 10 µM", "value": "< 0.0316", "unit": "µM"},
      {"measurement": "viability, T/C", "setting": "[1]", "value": 55.4, "unit": "%"},
      {"measurement": "viability, T/C", "setting": "[2]", "value": 54.7, "unit": "%"},
      {"measurement": "viability, T/C", "setting": "[3]", "value": 51.1, "unit": "%"},
      {"measurement": "viability, T/C", "setting": "[4]", "value": 55.7, "unit": "%"},
      {"measurement": "viability, T/C", "setting": "[5]", "value": 39.5, "unit": "%"},
      {"measurement": "viability, T/C", "setting": "[6]", "value": 7.81, "unit": "%"},
      {"measurement": "viability, T/C", "setting": "[7]", "value": 9.96, "unit": "%"},
      {"measurement": "viability, T/C", "setting": "[8]", "value": 10.7, "unit": "%"},
      {"measurement": "viability, T/C", "setting": "[9]", "value": 12.1, "unit": "%"},
      {"measurement": "viability, T/C", "setting": "[10]", "value": 11.7, "unit": "%"},
      {"measurement": "viability, T/C", "setting": "[11]", "value": 11.5, "unit": "%"},
      {"measurement": "viability, T/C", "setting": "[12]", "value": 6.36, "unit": "%"},
      {"measurement": "viability, T/C", "setting": "[13]", "value": 10, "unit": "%"},
      {"measurement": "viability, T/C", "setting": "[14]", "value": 10.9, "unit": "%"},
      {"measurement": "viability, T/C", "setting": "[15]", "value": 10.2, "unit": "%"},
      {"measurement": "viability, T/C", "setting": "[16]", "value": 9.51, "unit": "%"},
      {"measurement": "viability, T/C", "setting": "[17]", "value": 8.53, "unit": "%"},
      {"measurement": "viability, T/C", "setting": "[18]", "value": 6.4, "unit": "%"},
      {"measurement": "viability, T/C", "setting": "[19]", "value": 7.73, "unit": "%"},
      {"measurement": "viability, T/C", "setting": "[20]", "value": 8.42, "unit": "%"},
      {"measurement": "viability, T/C", "setting": "[21]", "value": 10.8, "unit": "%"},
      {"measurement": "viability, T/C", "setting": "[22]", "value": 10.6, "unit": "%"},
      {"measurement": "viability, T/C", "setting": "[23]", "value": 9.13, "unit": "%"},
      {"measurement": "viability, T/C", "setting": "[24]", "value": 6.23, "unit": "%"},
      {"measurement": "viability, T/C", "setting": "[25]", "value": 8.9, "unit": "%"},
      {"measurement": "viability, T/C", "setting": "[26]", "value": 11.5, "unit": "%"},
      {"measurement": "viability, T/C", "setting": "[27]", "value": 10.7, "unit": "%"},
      {"measurement": "viability, T/C", "setting": "[28]", "value": 10.2, "unit": "%"},
      {"measurement": "viability, T/C", "setting": "[29]", "value": 9.43, "unit": "%"},
      {"measurement": "viability, T/C", "setting": "[30]", "value": 6.44, "unit": "%"},
      {"measurement": "viability, T/C", "setting": "[31]", "value": 12.1, "unit": "%"},
      {"measurement": "viability, T/C", "setting": "[32]", "value": 9.87, "unit": "%"},
      {"measurement": "viability, T/C", "setting": "[33]", "value": 10.2, "unit": "%"},
      {"measurement": "viability, T/C", "setting": "[34]", "value": 11.4, "unit": "%"},
      {"measurement": "viability, T/C", "setting": "[35]", "value": 12.4, "unit": "%"},
      {"measurement": "viability, T/C", "setting": "[36]", "value": 11.9, "unit": "%"}
    ]},
    {"compound": "CC1COCCN1c1cc(C2(S(C)(=N)=O)CC2)nc(-c2ccnc3[nH]ccc23)n1", "note": "(centres undefined) + CNC(=O)c1ccc(Nc2nc(OC3CCCC3)c3c(-c4ccc5nc(C)oc5c4)c[nH]c3n2)c(OC)c1", "values": [
      {"measurement": "IC50", "setting": "second compound 0.0316 µM", "value": 0.216, "unit": "µM"},
      {"measurement": "IC50", "setting": "second compound 0.1 µM", "value": "< 0.0316", "unit": "µM"},
      {"measurement": "IC50", "setting": "second compound 0.316 µM", "value": "< 0.0316", "unit": "µM"},
      {"measurement": "IC50", "setting": "second compound 1 µM", "value": "< 0.0316", "unit": "µM"},
      {"measurement": "IC50", "setting": "second compound 3.16 µM", "value": "< 0.0316", "unit": "µM"},
      {"measurement": "IC50", "setting": "second compound 10 µM", "value": "< 0.0316", "unit": "µM"},
      {"measurement": "viability, T/C", "setting": "[1]", "value": 64.5, "unit": "%"},
      {"measurement": "viability, T/C", "setting": "[2]", "value": 54.4, "unit": "%"},
      {"measurement": "viability, T/C", "setting": "[3]", "value": 45.9, "unit": "%"},
      {"measurement": "viability, T/C", "setting": "[4]", "value": 39.2, "unit": "%"},
      {"measurement": "viability, T/C", "setting": "[5]", "value": 18.9, "unit": "%"},
      {"measurement": "viability, T/C", "setting": "[6]", "value": 5.59, "unit": "%"},
      {"measurement": "viability, T/C", "setting": "[7]", "value": 13.4, "unit": "%"},
      {"measurement": "viability, T/C", "setting": "[8]", "value": 10.1, "unit": "%"},
      {"measurement": "viability, T/C", "setting": "[9]", "value": 8.26, "unit": "%"},
      {"measurement": "viability, T/C", "setting": "[10]", "value": 9.68, "unit": "%"},
      {"measurement": "viability, T/C", "setting": "[11]", "value": 5.72, "unit": "%"},
      {"measurement": "viability, T/C", "setting": "[12]", "value": 3.41, "unit": "%"},
      {"measurement": "viability, T/C", "setting": "[13]", "value": 9.78, "unit": "%"},
      {"measurement": "viability, T/C", "setting": "[14]", "value": 9.55, "unit": "%"},
      {"measurement": "viability, T/C", "setting": "[15]", "value": 8.53, "unit": "%"},
      {"measurement": "viability, T/C", "setting": "[16]", "value": 6.94, "unit": "%"},
      {"measurement": "viability, T/C", "setting": "[17]", "value": 5.01, "unit": "%"},
      {"measurement": "viability, T/C", "setting": "[18]", "value": 4.53, "unit": "%"},
      {"measurement": "viability, T/C", "setting": "[19]", "value": 8.51, "unit": "%"},
      {"measurement": "viability, T/C", "setting": "[20]", "value": 8.26, "unit": "%"},
      {"measurement": "viability, T/C", "setting": "[21]", "value": 8.32, "unit": "%"},
      {"measurement": "viability, T/C", "setting": "[22]", "value": 6.7, "unit": "%"},
      {"measurement": "viability, T/C", "setting": "[23]", "value": 5.13, "unit": "%"},
      {"measurement": "viability, T/C", "setting": "[24]", "value": 2.61, "unit": "%"},
      {"measurement": "viability, T/C", "setting": "[25]", "value": 10.1, "unit": "%"},
      {"measurement": "viability, T/C", "setting": "[26]", "value": 10.7, "unit": "%"},
      {"measurement": "viability, T/C", "setting": "[27]", "value": 8.57, "unit": "%"},
      {"measurement": "viability, T/C", "setting": "[28]", "value": 7.75, "unit": "%"},
      {"measurement": "viability, T/C", "setting": "[29]", "value": 4.82, "unit": "%"},
      {"measurement": "viability, T/C", "setting": "[30]", "value": 2.48, "unit": "%"},
      {"measurement": "viability, T/C", "setting": "[31]", "value": 12.3, "unit": "%"},
      {"measurement": "viability, T/C", "setting": "[32]", "value": 10.4, "unit": "%"},
      {"measurement": "viability, T/C", "setting": "[33]", "value": 8.76, "unit": "%"},
      {"measurement": "viability, T/C", "setting": "[34]", "value": 8.59, "unit": "%"},
      {"measurement": "viability, T/C", "setting": "[35]", "value": 5.88, "unit": "%"},
      {"measurement": "viability, T/C", "setting": "[36]", "value": 2.34, "unit": "%"}
    ]}
  ]
}
